{"source": "patent US12268676B2", "about": "“Antiviral applications of picolinic acid and its derivatives” (INDIAN INSTITUTE OF SCIENCE, priority 2021, dated 2025)", "key": {"[1]": {"system": "wild type Zika virus (ZIKV) Cambodia strain", "test": "ZIKV infection, western blot of flavivirus envelope protein", "type": "cell-based", "conditions": "2 mM PA, 0.1 MOI, 48 hr post infection (FIG. 7L)"}, "SARS-CoV-2": {"system": "SARS-CoV-2", "test": "SARS CoV-2 infection studies in the hamster model", "type": "in vivo, Syrian golden hamsters", "conditions": "for viral RNA load mitigated by: 20 mg/kg PA therapeutic treatment"}, "[2]": {"system": "clathrin mediated endocytosis", "test": "Transferrin uptake assay, flow cytometry", "conditions": "A549, 2 mM PA, 1 hr pulse with 25 μg/mL Tf647"}, "CVB3": {"system": "CVB3", "test": "CVB3 multi-dose infection, plaque assay of supernatants", "type": "cell-based, Coxsackie virus B3", "conditions": "Vero cells, increasing concentrations of PA, 0.1 MOI, 48 hr p.i.", "from_the_text": "Further, Vero cells were pre-treated with increasing concentrations of PA as indicated and infected with 0.1 MOI CVB3 in the presence of drugs. 48 hr p.i, cell culture supernatants were used to quantify infectious virus by plaque assay."}, "[3]": {"system": "PR8 WT virus (strain A/Puerto Rico/8/1934 H1N1)", "type": "cell-based, Influenza A virus"}, "Zika Luc": {"system": "Zika Luc", "test": "microbe, parasite or virus in culture", "type": "cell-based", "conditions": "A549, 48 h, read-out: inhibition (luciferase, normalized with untreated control)"}, "TM4 mycobacteriophage": {"system": "TM4 mycobacteriophage", "test": "Effect of drug on TM4 mycobacteriophage", "type": "cell-based", "conditions": "10 MOI", "protocol": "Since most of the naked viruses tested were not inhibited by PA, whether PA would be effective against TM4 mycobacteriophages. M. smegmatis cells in a 48 well plate were treated with increasing concentrations of PA as indicated and OD600 measurements were taken periodically up to 24 hr. […] For the antiviral assay, 1 mM PA was either added at the start of experiment or 3 hr prior to infection. In either case, there was no protection from TM4 mycobacteriophage induced cell death (FIG. 12, panel G).\nEffect of drug on TM4 mycobacteriophage: To study the effect of the drug on TM4 phage growth and activity, 7H9 broth supplemented with ADC and CaCl2 was prepared and inoculated with 100 μL of log-phase secondary bacterial culture (OD 1-2) per 5 mL of the media. 1 mM of the drug was added to culture tubes at the appropriate time (either at the start of the experiment or 3 hr before adding the phage in the mid-log phase). The cultures were then incubated at 37° C. with rotary shaking at 180 pm. For phage-treated samples, a 10 MOI TM4 mycobacteriophage was added at a specified interval of the mid-log phase. […] Readings were taken using a spectrophotometer (Jenway 7205 UV/Visible Spectrophotometer) at 600 nm against a media blank."}, "A549 cells": {"system": "A549 cells", "test": "Cytotoxicity of PA, Alamar Blue cell viability", "type": "cell-based, human", "protocol": "Cytotoxicity of picolinic acid (PA) was tested by incubating human lung epithelial cells (A549 cells) with increasing concentrations of PA for up to 72 hrs and cell viability was measured at every 12 hr time intervals using Alamar Blue cell viability reagent (FIG. 1A). A549 cells were procured from ATCC, Manassas, Va., USA.\nA549 cells were seeded in 96-well cell culture dishes and 24 hr later treated with 0.02, 0.2, 2, and 20 mM PA in triplicates. Cells were then incubated at 37° C., 5% CO2, and cytotoxicity was measured at 12, 24, 36, 48, 60, and 72 hr post-treatment using AlamarBlue™ Cell Viability Reagent (DAL 1025, Thermo Fisher) as per manufacturer's instructions."}, "[4]": {"system": "Adenovirus 5 expressing eGFP", "test": "Adenovirus 5 eGFP infection of HEK cells, flow cytometry", "type": "cell-based, Adenovirus Serotype 5", "conditions": "2 mM PA, 10 MOI, 24 hr"}, "AAV6-GFP particles": {"system": "AAV6-GFP particles", "test": "AAV6-GFP infection of HEK cells, flow cytometry", "type": "cell-based, Adeno Associated Virus-6", "conditions": "2 mM PA, all virus volumes tested, 48 hr p.i."}, "PR8 WT virus": {"system": "PR8 WT virus", "type": "in vivo, BALB/c mice", "conditions": "for reduction of infectious virus titer in lung homogenates (plaque assay): 20 mg/kg PA prophylactically"}, "Rota virus RRV strain": {"system": "Rota virus RRV strain", "test": "Rotavirus RRV infection of HEK cells, IFA for VP6", "type": "cell-based", "conditions": "HEK cells pre-treated with 2 mM PA, 12 hr", "protocol": "Percentage positive cells was quantified using ImageJ/Fiji.\nRotavirus RRV infection: A working concentration of Rota virus was prepared by diluting the virus stock 2-fold with complete DMEM containing a final concentration of 2 μg/mL TPCK trypsin. The mixture was incubated at 37° C. for 30 min and further diluted 2-fold in DMEM without serum. This mixture was then used to infect HEK cells that were pre-treated for 3 hr with 2 mM PA. A volume of 100 μL per well, in a 24 well plate was used for 1 hr adsorption, after which the wells were topped up with 400 μL serum free media containing PA. After 12 hr, cells were fixed with 4% formalin and immunolabeled with primary mouse anti VP6, and anti-mouse secondary Alexa Fluor 488 antibodies to detect virus infected cells by IFA."}}, "note": "Several values for one entry are separate records, joined by “and”; a condition that tells them apart may be missing. Equal entries are not always repeated. Where two headings read alike, the source gives them in different places.", "data": [{"molecule": "O=C(O)c1ccccn1", "note": "[PA, pyridine-2-carboxylic acid]", "values": [{"measurement": "flavivirus envelope protein by western blot", "setting": "[1]", "value": "inhibition"}, {"measurement": "reduction in lung viral load", "setting": "SARS-CoV-2; 20 mg/kg PA prophylactically by IP injection", "value": "~2.5", "unit": "fold"}, {"measurement": "decrease in lung viral load", "setting": "SARS-CoV-2; 20 mg/kg PA prophylactically, delivered orally", "value": 1, "unit": "log"}, {"measurement": "viral RNA load mitigated by", "setting": "SARS-CoV-2; IP route", "value": "~1", "unit": "log"}, {"measurement": "viral RNA load mitigated by", "setting": "SARS-CoV-2; oral route", "value": "~1", "unit": "log"}, {"measurement": "body weight and lung weight compared to mock treated animals", "setting": "SARS-CoV-2; 20 mg/kg PA, prophylactic and therapeutic groups", "value": "body weight as well as corresponding lung weight rescue"}, {"measurement": "gross lung pathology and inflammation (images of whole lungs)", "setting": "SARS-CoV-2; PA treated groups vs mock treated", "value": "much of the pathology reduced"}, {"measurement": "histopathology analysis and scoring of lung sections", "setting": "SARS-CoV-2; PA treatment groups", "value": "decreased pathology"}, {"measurement": "cellular uptake of transferrin (Tf647 positive cells)", "setting": "[2]", "value": "did not show any differences"}, {"measurement": "infectious virus in supernatants (plaque assay)", "setting": "CVB3", "value": "did not imply any differences"}, {"measurement": "decrease in NP positive cells", "setting": "[3]", "value": "no decrease"}, {"measurement": "decrease in number of NP positive cells compared to virus control", "setting": "[3]", "value": "75% and 40%"}, {"measurement": "expression levels of virus NP by western blot, virus control vs PA treated", "setting": "[3]", "value": "no difference"}, {"measurement": "inhibition at 2000 µM", "setting": "Zika Luc", "value": "> 90", "unit": "%"}, {"measurement": "protection from TM4 mycobacteriophage induced cell death", "setting": "TM4 mycobacteriophage; 1 mM PA added 3 hr prior to infection", "value": "no protection"}, {"measurement": "protection from TM4 mycobacteriophage induced cell death", "setting": "TM4 mycobacteriophage; 1 mM PA added at the start of experiment", "value": "no protection"}, {"measurement": "cell viability", "setting": "A549 cells; 20 mM PA, 36 hr post treatment", "value": "loss of cell viability"}, {"measurement": "drug concentration non-toxic to cells", "setting": "A549 cells; over the period of 72 hr", "value": "up to 2 mM"}, {"measurement": "GFP positive cells, treated vs untreated", "setting": "[4]", "value": "Almost no differences"}, {"measurement": "decrease in GFP positive cells", "setting": "AAV6-GFP particles", "value": "5-10%"}, {"measurement": "reduction of infectious virus titer in lung homogenates (plaque assay)", "setting": "PR8 WT virus; IP route", "value": "> 10", "unit": "fold"}, {"measurement": "reduction of infectious virus titer in lung homogenates (plaque assay)", "setting": "PR8 WT virus; oral route", "value": "> 10", "unit": "fold"}, {"measurement": "survival", "setting": "PR8 WT virus; IP prophylactic group, 7 days p.i.", "value": 80, "unit": "%"}, {"measurement": "bodyweight rescue compared to virus control", "setting": "PR8 WT virus; IP prophylactic group, day 7", "value": "> 10", "unit": "%"}, {"measurement": "rescue of total animal body weight", "setting": "PR8 WT virus; all groups", "value": "Over 90%"}, {"measurement": "abrogation of lung virus titers, IP vs oral route", "setting": "PR8 WT virus; mouse, in vivo", "value": "more effective"}, {"measurement": "clinical scores of histology sections", "setting": "PR8 WT virus; mouse, in vivo", "value": "recovery"}, {"measurement": "lung histology analysis", "setting": "PR8 WT virus; mouse, in vivo", "value": "marked reduction in pathology"}, {"measurement": "animal survival", "setting": "PR8 WT virus; mouse, in vivo, ip", "value": "completely rescue"}, {"measurement": "lung histology analysis", "setting": "PR8 WT virus; mouse, in vivo, po", "value": "best rescue"}, {"measurement": "effect on virus entry (VP6 positive cells, IFA)", "setting": "Rota virus RRV strain", "value": "did not have any effects"}]}]}
